Test results taken from patent US12422437B2, “Methods of screening for condensate-associated specificity and uses thereof” (Dewpoint Therapeutics, Inc., priority 2019, dated 2025).

Tests used:
Format in all cases: cell-based, human
[1] = tested on: stress granules (FUS, eIF3, G3BP1) in HeLa Kyoto, HeLa BAC FUS-GFP and iPS FUS-GFP cells; test: Screen for compounds altering FUS, eIF3 and G3BP1 levels in stress granules of arsenate-stressed cells (Example 1); conditions: compound 1 μM, 5 μM or 25 μM for one hour, then 2 mM Potassium Arsenate 1 hour; confocal fluorescence imaging; FIGS. 1-4
Source text: Stress granules are condensates that form in the cytoplasm of cells under stress. Multiple proteins are known to be concentrated in stress granules, including FUS, eukaryotic initiation factor 3 (eIF3), and G3BP1. FUS is involved in pre-mRNA maturation, and various mutations in FUS have been associated with ALS. Although FUS is found in stress granules, it is not believed to be critical for formation of stress granules. Like FUS, eIF3 is also not believed to be critical for formation of stress granules. As the name indicates, eIF3 is a eukaryotic initiation factor, but it is also involved in translational recycling. By contrast, G3BP1 is believed to initiate formation of stress granules and is potentially critical to maintaining their structure. G3BP1 is an RNA binding protein and an element of the Ras signaling transduction pathway. These three proteins were tracked within cells to determine if compounds could preferentially exclude one of these proteins from stress granules without dissolving the stress granule.
(§1) Three cell lines (HeLa Kyoto, HeLa comprising a bacterial artificial chromosome (BAC) encoding FUS-GFP, and induced pluripotent stem cells (iPS) expressing FUS-GFP) were separately grown in culture. 1200 compounds from a compound library were exposed individually at concentrations of 1 μM, 5 μM, or 25 μM to one of the cell lines for one hour. For some compounds, this procedure was repeated for one or both of the other cell lines. Cells that were not exposed to the compounds (DMSO-only vehicle treatment) were used as controls. The cells were then exposed to arsenate stress for 1 hour to stimulate the formation of stress granules, using a final concentration of 2 mM Potassium Arsenate (Sigma A6631, diluted in PBS).
(§2) After stress treatment, the cells were fixed with a final concentration of 3.7% Formaldehyde (FA) for 15 minutes at room temperature. Subsequently, cells were washed using a plate washer, permeabilized (10 min at RT using 0.1% Triton X/PBS) and blocked (30 min with 0.2% Fish skin gelatin/PBS). For cells expressing FUS-GFP, GFP fluorescence was observed directly. For the other protein markers of interest a combination of anti-FUS (Sigma AMAb90549; 1:500), anti-eIF3 (Santa Cruz sc-137214; 1:500), and anti-G3BP1 (Invitrogen PA5-29455; 1:4000) antibodies and appropriate secondary antibodies (Life Technologies; Alexa 594 and 647) was applied to visualize FUS, eIF3, and G3BP1 protein in the cells.
(§3) A spinning disk confocal microscope was used to acquire images of the samples using confocal fluorescence at 405/488/561/640 nm. 40× air objective lenses were used to capture the images. The gain was set to 1.4 and binning to 1. The exposure times were adjusted to the fluorescence emission intensity specific for each label. Exposure times ranged from 100-300 ms. Appropriate filter settings were used, matching the excitation and emission spectra of the label. Image acquisition was automated, and the resulting data were analyzed using KNIME (Berthold et al., 2008, Data Analysis, Machine Learning and Applications. Studies in Classification, Data Analysis, and Knowledge Organization. Springer, Berlin, Heidelberg) and CellProfiler (Carpenter et al., 2006, Genome Biol 7:R100). Twenty-five imaging parameters were extracted for each image, including marker signal droplet count, area, shape, etc. For each imaging parameter, the Z′ factor for the entire plate was calculated according to the following formula: Z′=1−[3*(SD(pos)+SD(neg))/(Avg(pos)−Avg(neg))] where SD(pos) is the standard deviation of the positive control, SD(neg) is the standard deviation of the negative control, Avg(pos) is the average of the positive control and Avg(neg) is the average of the negative control.
In addition, z-scores were calculated for every test compound using the formula: z=(x−x)/S where x is the mean of the sample, and S is the standard deviation of the sample. […] Results

[2] = tested on: stress granules (FUS, eIF3, G3BP1) in HeLa Kyoto, HeLa BAC FUS-GFP and iPS FUS-GFP cells; test: Screen for macromolecule and tissue specificity on stress granules of arsenate-stressed cells (Example 2); conditions: compound 1 μM, 5 μM or 25 μM for one hour, then 2 mM Potassium Arsenate 1 hour; confocal fluorescence imaging; FIGS. 5-10
Experimental: as §1, with “In brief, three” for “Three”, “lines. […]” for “lines.”
as §2
as §3, with “40× (primary screen) and 20× (potency testing)” for “40×”, “Heidelberg),” for “Heidelberg) and”, “7:R100); or, for potency testing, data were analyzed using Harmony (PerkinElmer, Waltham MA) and Vault (Collaborative Drug Discovery, Burlingame CA).” for “7:R100).”
In addition, z-scores were calculated for every test compound using the formula: z=(x−x)/S where x is the mean of the sample, and S is the standard deviation of the sample.

[3] = tested on: stress granules of stressed HeLa cells carrying BAC FUS-GFP; test: Dose-response / potency testing for FUS, eIF3 and G3BP1 in stress granules (FIG. 11); conditions: 0.0021-30 μM, number of cytoplasmic drops per cell, four parameter logistic fit
Source text: FIG. 11 is a plot of dose-response curves for FUS, eIF3, and G3BP1 in stress granules of stressed HeLa cells carrying BAC FUS-GFP treated with YM155.
The methods used in this example were similar to those discussed in Example 1. In brief, three cell lines (HeLa Kyoto, HeLa comprising a bacterial artificial chromosome (BAC) encoding FUS-GFP, and induced pluripotent stem cells (iPS) expressing FUS-GFP) were separately grown in culture. 1200 compounds from a compound library were exposed individually at concentrations of 1 μM, 5 μM, or 25 μM to one of the cell lines for one hour. For some compounds, this procedure was repeated for one or both of the other cell lines. […]
A spinning disk confocal microscope was used to acquire images of the samples using confocal fluorescence at 405/488/561/640 nm. […] The exposure times were adjusted to the fluorescence emission intensity specific for each label. […] Image acquisition was automated, and the resulting data were analyzed using KNIME (Berthold et al., 2008, Data Analysis, Machine Learning and Applications. Studies in Classification, Data Analysis, and Knowledge Organization. Springer, Berlin, Heidelberg), CellProfiler (Carpenter et al., 2006, Genome Biol 7:R100); or, for potency testing, data were analyzed using Harmony (PerkinElmer, Waltham MA) and Vault (Collaborative Drug Discovery, Burlingame CA). […]

| Compound | Selective and Non-Selective Condensate Disrupters (selectivity of exclusion of FUS, eIF3, G3BP1 from stress granules) [1] | Selectivity (Selective and Non-Selective Condensate Disrupters) [2] | potency (similar to IC50) for exclusion of a specific protein from stress granules relative to others [3] |
| --- | --- | --- | --- |
| CNC(=O)CN1CCC(Oc2cc3c(Nc4cccc(Cl)c4F)ncnc3cc2OC)CC1 [AZD8931] | eIF3-selective |  |  |
| O=C(O)CCc1ccc(NCc2cccc(Oc3ccccc3)c2)cc1 [GW9508] | FUS-selective |  |  |
| NC(=O)CCCCC1CCSS1 (stereo not drawn) [Lipoamide] | Non-selective | Non-selective |  |
| Cc1cnc(Nc2ccc(N3CCN(C)CC3)cc2)nc1Nc1cccc(S(=O)(=O)NC(C)(C)C)c1 [TG101209] | Non-selective | Non-selective |  |
| Cc1cc2cc3ccc(N(C)C)cc3nc2cc1N [Coriphosphine O] |  | FUS-selective |  |
| COc1cc(N2CCC(N)CC2)ccc1Nc1ncc(Cl)c(-c2c[nH]c3ccccc23)n1 [AZD3463] | FUS-selective |  |  |
| COc1cc(CCc2cc(NC(=O)c3ccc(N4C[C@@H](C)N[C@@H](C)C4)cc3)n[nH]2)cc(OC)c1 [AZD4547] | Non-selective |  |  |
| COc1ncc(-c2ccc3nccc(-c4ccnnc4)c3c2)cc1NS(=O)(=O)c1ccc(F)cc1F [Omipalisib] | Non-selective |  |  |
| C[C@H]1CCC/C=C/[C@@H]2C[C@H](O)C[C@H]2[C@H](O)/C=C/C(=O)O1 [Brefeldin A] | FUS-selective |  |  |
| Cn1cc(C2=C(c3cn(CCCSC(=N)N)c4ccccc34)C(=O)NC2=O)c2ccccc21 [Bisindolylmaleimide IX] |  | eIF3-selective |  |
| Cc1ccc(NC(=O)c2ccc(CN3CCN(C)CC3)cc2)cc1Nc1nc(-c2cccnc2)cs1 [Masitinib] |  | FUS protein and iPSC cell selective |  |
| COc1cc2c(Oc3ccc4[nH]c(C)cc4c3F)ncnc2cc1OCCCN1CCCC1 [Cediranib] |  | eIF3 and FUS- selective |  |
| COc1ccc(-c2cc3c(C)nc(N)nc3n(C3CCC(OCCO)CC3)c2=O)cn1 (stereo not drawn) [PF-04691502] |  | Non-selective |  |
| O=C(c1ccc(F)cc1)C1CCN(CCn2c(=O)[nH]c3ccccc3c2=O)CC1 [Ketanserin] | FUS-selective |  |  |
| CC1(C)CCC2=C(O1)c1ccccc1C(=O)C2=O [Beta-Lapachone] | eIF3-selective | eIF3-selective |  |
| COCCn1c2c([n+](Cc3cnccn3)c1C)C(=O)c1ccccc1C2=O.[Br-] [YM155 (Sepantronium Bromide), Sepantronium Bromide] | eIF3-selective | eIF3-selective | exclusion of eIF3 at lower concentration of compound relative to FUS and G3BP1 |
